Source: US7432342B2, “Kinase anchor protein muteins, peptides thereof and related documents” (Sequenom, Inc., priority 2002, dated 2008)
Ends that are not written are not given here. Peptide text beside a SMILES is read from it. * marks the point of attachment. X1 = CN(C)c1ccc2c(c1)Oc1cc(N(C)C)ccc1C21OC(=O)c2cc(N3C(=O)CC(*)C3=O)ccc21

Columns and labels:
full-length RIα = target: T1, full-length RIα (Bos taurus, UniProt P00514); assay: Fluorescence anisotropy binding assay (Example 9); parameters: species or system bovine; settings: for Kd: Table 8, truncated and substituted peptides, read-out: KD (nM) Rlα; for binding to RIα, in words: compared with the unsubstituted peptide
T1 construct: Full-length bovine RIα was expressed in E. coli 222; made in house; host or cells: E. coli 222
T1 sequence (P00514 whole entry, the tested form may be a part): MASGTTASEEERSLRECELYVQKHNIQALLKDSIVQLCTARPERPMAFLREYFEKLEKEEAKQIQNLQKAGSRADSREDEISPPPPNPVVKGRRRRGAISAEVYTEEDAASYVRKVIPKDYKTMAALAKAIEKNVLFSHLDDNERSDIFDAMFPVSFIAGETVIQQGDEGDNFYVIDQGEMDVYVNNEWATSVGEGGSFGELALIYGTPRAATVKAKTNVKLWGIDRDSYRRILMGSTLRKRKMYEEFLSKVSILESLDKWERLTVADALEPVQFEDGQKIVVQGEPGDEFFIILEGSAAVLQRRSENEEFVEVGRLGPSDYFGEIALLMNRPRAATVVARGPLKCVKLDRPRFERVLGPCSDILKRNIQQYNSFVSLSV
Protocol: (§1) Each peptide was fluorescently labeled using a 25 mM solution of tetramethylrhodamine-5-maleimide (catalog number T-6027; Molecular Probes, Eugene, Oreg.) dissolved in DMSO. The peptides were labeled by incubating with a three-fold molar excess of the label for 16 hr at 4° C. in 20 mM Tris, pH 7.0 and 1 mM tris-(2-carboxyethyl) phosphine, hydrochloride (TCEP) (non-thiol reducing agent, Molecular Probes). The sample was quenched with 1 mM, β-mercaptoethanol to bind to any unreacted maleimide and diluted with 0.1% TFA for purification by HPLC. The labeled peptides were resolved using a C18 column with a water/acetonitrile gradient containing 0.1% TFA. The concentration of each peptide was determined by absorbance at 541 nm after diluting into 100% methanol and using an extinction coefficient of 91,000 M^−1 cm^−1 for absorbance of the rhodamine label at 541 nm (Molecular Probes Catalog). The peptides were stored at 4° C. in 50% acetonitrile.
(§2) Full-length murine RIIα was expressed in E. coli BL21 (DE3). Full-length bovine RIα was expressed in E. coli 222. The proteins were purified as previously described using a cAMP affinity resin (Hamuro et al. (2002) J. Mol. Biol., 321:703). The protein concentrations were determined using the following extinction coefficients at 280 nm, which were calculated using a standard concentration of protein calibrated using quantitative amino acid analysis: RIα 52,603 M^−1 cm^−1 and RIIα 62,456 M^−1 cm^−1. The proteins were stored at 4° C. in 50 mM MES pH 5.8, 50 mM NaCl, 2 mM EDTA, 2 mM EGTA, 2 mM DTT.
(§3) Binding of each fluorescently labeled peptide to the regulatory subunits was monitored using fluorescence anisotropy. RIα and RIIα were serially diluted beginning at 1 μM and 0.1 μM, respectively, into 10 mM HEPES pH 7.4, 0.15 M NaCl, 3 mM EDTA, 0.005% Surfactant P20 (Biacore) containing either 10 nM or 1 nM of fluorescently labeled peptide for RIα and RIIα, respectively. The samples were equilibrated for at least 1 hour at room temperature and fluorescence anisotropy monitored using a Fluoromax-2 (Jobin Yvon Horiba, SPEX Division, Edison, N.J.) equipped with Glan-Thompson polarizers. The rhodamine-labeled peptide was excited at 541 nm (5-10 nm bandpass) and emission monitored at 575 nm (5-10 nm bandpass). The anisotropy was calculated directly with the Fluoromax software using the following equation: r=(IVV−G*IVH)/(IVV+2G*IVH) (1) where r is the steady state anisotropy, IVV is the fluorescence intensity with the excitation and emission polarizers oriented in the vertical position (0° from normal), IVH is the fluorescence intensity with the excitation polarizer in the vertical position and the emission polarizer oriented in the horizontal position (90°) relative to the excitation polarizer, G is the monochromator grating factor which is equal to (IHV/IHH), with the first subscript indicating the position of the excitation polarizer and the second subscript indicating position of the emission polarizer. Three separate binding experiments were averaged and fit to a 1:1 binding model using the non-linear regression application in GraphPad Prism version 3.00 (GraphPad Software, San Diego, Calif.).

full-length RIIα = target: T2, full-length RIIα (Mus musculus, UniProt P12367); assay: Fluorescence anisotropy binding assay (Example 9); parameters: species or system murine; settings: for Kd: Table 8, truncated and substituted peptides, read-out: KD (nM) Rllα; for binding to RIIα, in words: compared with the unsubstituted peptide
T2 construct: Full-length murine RIIα was expressed in E. coli BL21 (DE3); made in house; host or cells: E. coli BL21 (DE3)
T2 sequence (P12367 whole entry, the tested form may be a part): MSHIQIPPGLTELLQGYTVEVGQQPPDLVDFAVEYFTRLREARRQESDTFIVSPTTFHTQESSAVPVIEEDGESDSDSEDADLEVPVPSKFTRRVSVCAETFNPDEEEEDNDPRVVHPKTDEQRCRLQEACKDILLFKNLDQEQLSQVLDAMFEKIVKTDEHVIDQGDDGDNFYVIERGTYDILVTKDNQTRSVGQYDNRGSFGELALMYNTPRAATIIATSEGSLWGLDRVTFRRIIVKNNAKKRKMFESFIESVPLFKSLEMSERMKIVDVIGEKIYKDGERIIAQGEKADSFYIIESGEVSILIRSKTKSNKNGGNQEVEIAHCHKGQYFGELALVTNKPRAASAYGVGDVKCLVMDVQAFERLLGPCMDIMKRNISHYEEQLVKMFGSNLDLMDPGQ
Protocol: as §1, §2, §3

Compound	Kd (full-length RIα) [nM]	Kd (full-length RIIα) [nM]	binding to RIα, in words (full-length RIα)	binding to RIIα, in words (full-length RIIα)
CC[C@H](C)[C@H](NC(=O)[C@H](CCCCN)NC(=O)[C@H](Cc1c[nH]c2ccccc12)NC(=O)[C@H](C)NC(=O)[C@H](CC(C)C)NC(=O)[C@H](CCC(=O)O)NC(=O)[C@H](CCC(=O)O)NC(=O)[C@H](CCC(N)=O)NC(=O)[C@H](C)NC(=O)[C@H](CCC(=O)O)NC(=O)[C@H](CC(=O)O)NC(=O)[C@@H](NC(=O)[C@H](CC(N)=O)NC(=O)CNC(=O)[C@H](CCC(N)=O)NC(=O)[C@@H](N)C(C)C)[C@@H](C)O)C(=O)N[C@@H](C)C(=O)N[C@@H](CCCCN)C(=O)N[C@@H](CCSC)C(=O)N[C@H](C(=O)N[C@@H](Cc1c[nH]c2ccccc12)C(=O)N[C@@H](CO)C(=O)N[C@@H](CC(=O)O)C(=O)N[C@H](C(=O)N[C@@H](CCSC)C(=O)N[C@@H](CCC(N)=O)C(=O)N[C@@H](CCC(N)=O)C(=O)N[C@@H](CSC1CC(=O)N(c2ccc3c(c2)C(=O)OC32c3ccc(N(C)C)cc3Oc3cc(N(C)C)ccc32)C1=O)C(N)=O)C(C)C)[C@@H](C)CC (stereo partly shown) [SEQ ID NO:111] (H-VQGNTDEAQEELAWKIAKMIWSDVMQQC(X1)-NH2)	120	83		
CC[C@H](C)[C@H](NC(=O)[C@H](CCCCN)NC(=O)[C@H](Cc1c[nH]c2ccccc12)NC(=O)[C@H](C)NC(=O)[C@H](CC(C)C)NC(=O)[C@H](CCC(=O)O)NC(=O)[C@H](CCC(=O)O)NC(=O)[C@@H](N)Cc1ccccc1)C(=O)N[C@@H](C)C(=O)N[C@@H](CCCCN)C(=O)N[C@@H](CCSC)C(=O)N[C@H](C(=O)N[C@@H](Cc1c[nH]c2ccccc12)C(=O)N[C@@H](CO)C(=O)N[C@@H](CC(=O)O)C(=O)N[C@H](C(=O)N[C@@H](CCSC)C(=O)N[C@@H](CCC(N)=O)C(=O)N[C@@H](CCC(N)=O)C(=O)N[C@@H](CSC1CC(=O)N(c2ccc3c(c2)C(=O)OC32c3ccc(N(C)C)cc3Oc3cc(N(C)C)ccc32)C1=O)C(N)=O)C(C)C)[C@@H](C)CC (stereo partly shown) [PV-37] (H-FEELAWKIAKMIWSDVMQQC(X1)-NH2)	19	150		
CC[C@H](C)[C@H](NC(=O)[C@H](CCCCN)NC(=O)[C@H](Cc1c[nH]c2ccccc12)NC(=O)[C@H](C)NC(=O)[C@H](Cc1ccccc1)NC(=O)[C@H](CCC(=O)O)NC(=O)[C@H](CCC(=O)O)NC(=O)[C@@H](N)CCC(N)=O)C(=O)N[C@@H](C)C(=O)N[C@@H](CCCCN)C(=O)N[C@@H](CCSC)C(=O)N[C@H](C(=O)N[C@H](C(=O)N[C@@H](CO)C(=O)N[C@@H](CC(=O)O)C(=O)N[C@H](C(=O)N[C@@H](Cc1ccccc1)C(=O)N[C@@H](CCC(N)=O)C(=O)N[C@@H](CCC(N)=O)C(=O)N[C@@H](CSC1CC(=O)N(c2ccc3c(c2)C(=O)OC32c3ccc(N(C)C)cc3Oc3cc(N(C)C)ccc32)C1=O)C(N)=O)C(C)C)C(C)C)[C@@H](C)CC (stereo partly shown) [PV-47] (H-QEEFAWKIAKMIVSDVFQQC(X1)-NH2)	39	89		
CC[C@H](C)[C@H](NC(=O)[C@H](CCCCN)NC(=O)[C@H](Cc1c[nH]c2ccccc12)NC(=O)[C@H](C)NC(=O)[C@H](CC(C)C)NC(=O)[C@H](CC(=O)O)NC(C)=O)C(=O)N[C@@H](C)C(=O)N[C@@H](CCCCN)C(=O)N[C@@H](CCSC)C(=O)N[C@H](C(=O)N[C@H](C(=O)N[C@@H](CO)C(=O)N[C@@H](CC(=O)O)C(=O)N[C@H](C(=O)N[C@@H](CCSC)C(=O)N[C@@H](CCC(N)=O)C(=O)N[C@@H](CCC(N)=O)C(=O)N[C@@H](CSC1CC(=O)N(c2ccc3c(c2)C(=O)OC32c3ccc(N(C)C)cc3Oc3cc(N(C)C)ccc32)C1=O)C(N)=O)C(C)C)C(C)C)[C@@H](C)CC (stereo partly shown) [SEQ ID NO:112, Ac-DLAWKIAKMIVSDVMQQC] (Ac-DLAWKIAKMIVSDVMQQC(X1)-NH2)	773	107		
CC[C@H](C)[C@H](NC(=O)[C@H](CCCCN)NC(=O)[C@H](Cc1c[nH]c2ccccc12)NC(=O)[C@H](C)NC(=O)[C@H](CC(C)C)NC(=O)[C@H](CCC(=O)O)NC(=O)[C@H](CCC(=O)O)NC(=O)[C@@H](N)Cc1ccccc1)C(=O)N[C@@H](C)C(=O)N[C@@H](CCCCN)C(=O)N[C@@H](CCSC)C(=O)N[C@H](C(=O)N[C@H](C(=O)N[C@@H](CO)C(=O)N[C@@H](CC(=O)O)C(=O)N[C@H](C(=O)N[C@@H](Cc1ccccc1)C(=O)N[C@@H](CCC(N)=O)C(=O)N[C@@H](CCC(N)=O)C(=O)N[C@@H](CSC1CC(=O)N(c2ccc3c(c2)C(=O)OC32c3ccc(N(C)C)cc3Oc3cc(N(C)C)ccc32)C1=O)C(N)=O)C(C)C)[C@@H](C)CC)[C@@H](C)CC (stereo partly shown) [PV-49] (H-FEELAWKIAKMIISDVFQQC(X1)-NH2)	1.1	2.5		
VQGNTDEAQEELAWKIAKMIWSD[I/V]MQQ [SEQ ID NO:54]			binds tightly	weakly
Ac-DLAWKIAKMIVSDVMQQ (listed as Homo sapiens) [SEQ ID NO:102]			reduced binding	reduced binding
CC[C@H](C)[C@H](NC(=O)[C@H](CCCCN)NC(=O)[C@H](Cc1c[nH]c2ccccc12)NC(=O)[C@H](C)NC(=O)[C@H](Cc1ccccc1)NC(=O)[C@H](CCC(=O)O)NC(=O)[C@H](CCC(=O)O)NC(=O)[C@@H](N)CCC(N)=O)C(=O)N[C@@H](C)C(=O)N[C@@H](CCCCN)C(=O)N[C@@H](CCSC)C(=O)N[C@H](C(=O)N[C@H](C(=O)N[C@@H](CO)C(=O)N[C@@H](CC(=O)O)C(=O)N[C@H](C(=O)N[C@@H](Cc1ccccc1)C(=O)N[C@@H](CCC(N)=O)C(=O)N[C@@H](CCC(N)=O)C(=O)N[C@@H](CSC1CC(=O)N(c2ccc3c(c2)C(=O)OC32c3ccc(N(C)C)cc3Oc3cc(N(C)C)ccc32)C1=O)C(N)=O)C(C)C)[C@@H](C)CC)[C@@H](C)CC (stereo partly shown) [PV-48] (H-QEEFAWKIAKMIISDVFQQC(X1)-NH2)	12	124		
